Measured values as given in patent US20170216240A1, “METHODS FOR MODULATING IKS CHANNEL ACTIVITY” (UNIVERSITY OF MIAMI, priority 2014, published 2017).

How the values were obtained:
Kv7.1/KCNE1 = biological target: T1, Kv7.1/KCNE1 (Homo sapiens, UniProt P51787); experiment: G(V) shift of Kv7.1 co-expressed with KCNE1 in Xenopus oocytes, two-electrode voltage-clamp; format: cell-based; details: 70 μM, pH 7.4; for ΔV1/2 ± SEM (G(V) shift): Kv7.1/E1
T1 construct: expressed in transfected cells; host or cells: Xenopus laevis oocytes (cRNA co-injection)
From the text: (§1) cDNAs encoding human Kv7.1 (GEnBAnk Acc. No. NM_000218) and KCNE1 (NM_000219) were subcloned into the expression vectors pGEM or pXOOM, containing the 5′- and 3′-untranslated regions for Xenopus laevis β-globin as well as a poly-A segment (Jespersen et al., Biotechniques 32, 536-538, 540 (2002)). The truncated KCNE1 construct KCNE1ΔC was constructed by introducing a Stop codon at position 67 using Quikchange site-directed mutagenesis kit (Qiagen). The construct was fully sequenced to ensure proper mutation and absence of unwanted mutations (sequencing by Genewiz). The concatemers E1-Kv7.1-Kv7.1 and E1-Kv7.1 were provided by Dr. R. S. Kass at Columbia University, and can be prepared as described in Chan et al. Journal of General Physiology 132(2), 135-144, (2012)). The E1-Kv7.1 construct was made by linking the C-terminus of KCNE1 to the N-terminus of KCNQ1. The E1-Kv7.1-Kv7.1 construct was made by digesting the E1-Kv7.1 and a Kv7.1-Kv7.1 dimer with Xho1 and inserting the 2-kb fragment from the Kv7.1-Kv7.1 dimer digest into the cut KCNE1-Kv7.1 construct. The DNA encoding E1-Kv7.1-Kv7.1 and E1-Kv7.1 were in the pGEM vector and contained mutations to make the constructs suitable for voltage-clamp fluorometry recordings (Wang et al., J Biol Chem 273, 34069-34074 (1998)). The original KCNE1 and Kv7.1 sequences were therefore removed, one at a time, from the pGEM vector using different restriction enzymes (New England Biolabs). Sequences were separated using gel electrophoresis and harvested using Qiagen gel extraction kit. Corresponding wild type sequences were ligated into the construct using T4 Ligase (New England Biolabs). To ensure correct sequence the constructs were sequenced (Genewiz) and tested with different restriction enzymes in combination with gel electrophoresis to measure length and conformation of the gene. cRNA for injection of all constructs was prepared from linearized DNA using the T7 mMessage mMachine transcription kit (Ambion) according to the manufactures instructions. RNA quality was checked by gel electrophoresis, and RNA concentrations were quantified by UV spectroscopy.
(§2) Xenopus laevis oocytes were isolated and maintained (Bentzen, B. H. et al. Neuropharmacology 51, 1068-1077 (2006)). Approximately 50 nl cRNA (50 ng Kv7.1, KCNE1-Kv7.1-Kv7.1 or KCNE1-Kv7.1 alternatively 25 ng Kv7.1 together with 8 ng KCNE1 or KCNE1ΔC) was injected into each oocyte using a Nanojet microinjector (Drummond). Electrophysiological experiments were made 2-5 days after injection. Currents were measured at room temperature with the two-electrode voltage-clamp technique (CA-1B Dagan amplifier). Currents were sampled at 1-3.3 kHz, filtered at 500 Hz, and not leakage corrected. […] A control solution containing (in mM): 88 NaCl, 1 KCl, 15 HEPES, 0.4 CaCl2, and 0.8 MgCl2 was used. NaOH was added to adjust pH to 7.4, yielding a final sodium concentration of about 100 mM. The holding voltage was generally set to −80 mV. Activation curves were generally elicited by stepping to test voltages between −110 and +60 mV (2-4 s durations and 10 mV increments) followed by a tail voltage of −30 mV. For recordings of Kv7.1 at pH 9 and pH 10, the holding voltage was set to more negative voltages because the largest DHA-induced shifts induced channel opening already at −80 mV. […] Therefore, in arachidonyl amine experiments a brief hyperpolarizing pulse of 50 ms to −120 mV was introduced between the test voltage and the tail voltage to relief the channels from inactivation.
(§3) Test compounds were dissolved in 99.5% ethanol to a concentration of 100 mM and stored at −20° C. (Börjesson et al., Biophys J 95, 2242-2253 (2008); Börjesson et al., Biophys J 98, 396-403 (2010)). Shortly before experiments, test compounds were diluted in control solution to the desired test concentration. Pure control solution was added to the bath using a gravity-driven perfusion system. […]

Kv7.1 = Kv7.1 (Homo sapiens, UniProt P51787); experiment: G(V) shift of Kv7.1 expressed in Xenopus laevis oocytes, two-electrode voltage-clamp; format: cell-based; details: Kv7.1, 70 μM, pH 7.4
From the text: as §1, §2, §3

[1] = listed as N-arachidonoyl taurine

ΔV1/2 ± SEM (G(V) shift) (Kv7.1/KCNE1): about −30 mV
ΔV1/2 ± SEM (G(V) shift) (Kv7.1/KCNE1; [1]): about −30 mV
ΔV1/2 ± SEM (G(V) shift) (Kv7.1/KCNE1; listed as N—AT): −27.0 ± 2.5 mV
G(V) shift of a representative cell (control curve shifted) (Kv7.1/KCNE1; Kv7.1/KCNE1): −24 mV
ΔV1/2 ± SEM (G(V) shift) (Kv7.1; [1]): about −30 mV
ΔV1/2 ± SEM (G(V) shift) (Kv7.1; listed as N—AT): −26.2 ± 2.7 mV
Compound: CCCCC/C=C\C/C=C\C/C=C\C/C=C\CCCC(=O)NCCS(=O)(=O)O [N-AT, N-arachidonoyl taurine]
